The results in this text go back to US6656932B2, “Benzo thiadiazine matrix metalloproteinase inhibitors” (Warner-Lambert Company, priority 2001, dated 2003).

For orientation: IC50 means the concentration that inhibits the measured activity by half.

Counter-ions that a name gives are not always drawn. A value given as a limit tells only on which side of the number the result lay.

MMP-3CD (catalytic domain of stromelysin-1), sequence (P08254 100-272 limits assumed): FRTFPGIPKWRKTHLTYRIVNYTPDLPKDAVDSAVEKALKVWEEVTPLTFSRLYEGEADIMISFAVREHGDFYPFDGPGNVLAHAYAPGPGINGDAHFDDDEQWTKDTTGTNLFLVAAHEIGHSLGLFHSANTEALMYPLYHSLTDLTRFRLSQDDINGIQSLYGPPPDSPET

The target in the first test is MMP-3CD (catalytic domain of stromelysin-1) (Homo sapiens, UniProt P08254). As to the kind of experiment: Thiopeptolide hydrolysis assay, MMP-3CD. It is filed as biochemical. The conditions noted are these: Table 2; thiopeptolide substrate, MES buffer pH 6.0; read-out: IC50 (μM) Versus Certain MMPs: MMP03 (CD). As for the experimental part:
(§1) The invention compounds of Formula I have been evaluated in standard assays for their ability to inhibit the catalytic activity of various MMP enzymes.
(§2) Thiopeptolide substrates show virtually no decomposition or hydrolysis at or below neutral pH in the absence of a matrix metalloproteinase enzyme.
(§3) Several representative compounds have been evaluated for their ability to inhibit various matrix metalloproteinase enzymes.
It should be appreciated that the assay buffer used with MMP-3CD was 50 mM of N-morpholinoethane sulfonate (“MES”) at pH 6.0 rather than the HEPES buffer at pH 7.0 described above.
Consider `COc1ccc(CNC(=O)c2ccc3c(c2)S(=O)(=O)N(Cc2ccc([N+](=O)[O-])cc2)C(=O)N3C)cc1` [Example 17, 4-Methyl-2-(4-nitro-benzyl)-1,1,3-trioxo-1,2,3,4-tetrahydro-1l^6-benzo[1,2,4]thiadiazine-7-carboxylic acid 4-methoxy-benzylamide], for which the IC50 worked out at 16 µM.

The target in the next test is MMP-13CD (catalytic domain of collagenase 3) (Homo sapiens, UniProt P45452). In words: Thiopeptolide hydrolysis assay, MMP-13CD. It is filed as biochemical. The conditions noted are these: Table 1; thiopeptolide substrate, HEPES pH 7.0; read-out: MMP13 (CD) IC50.
Text: as §1, §2, §3
As to `CN1C(=O)N(Cc2ccccc2)S(=O)(=O)c2cc(C(=O)NCc3ccncc3)ccc21` [Example 3, 2-Benzyl-4-methyl-1,1,3-trioxo-1,2,3,4-tetrahydro-1l^6-benzo[1,2,4]thiadiazine-7-carboxylic acid (pyridin-4-ylmethyl)-amide], the IC50 was determined as 0.51 µM.

Turning to `CN1C(=O)N(Cc2ccccc2)S(=O)(=O)c2cc(C(=O)NCc3ccccc3)ccc21` [Example 2, 2-Benzyl-4-methyl-1,1,3-trioxo-1,2,3,4-tetrahydro-1l^6-benzo[1,2,4]thiadiazine-7-carboxylic Acid Benzylamide], the IC50 amounted to 0.88 µM.

Still in this test, the particulars now being: Table 2; thiopeptolide substrate, HEPES pH 7.0; read-out: IC50 (μM) Versus Certain MMPs: MMP13 (CD).
For the compound `COc1ccc(CNC(=O)c2ccc3c(c2)S(=O)(=O)N(Cc2ccc(N)cc2)C(=O)N3C)cc1` [Example 33, 2-(4-Amino-benzyl)-4-methyl-1,1,3-trioxo-1,2,3,4-tetrahydro-1l^6-benzo[1,2,4]thiadiazine-7-carboxylic acid 4-methoxy-benzylamide], the IC50 was 8.8 µM.

For `COc1ccc(CNC(=O)c2ccc3c(c2)S(=O)(=O)N(CCCCCC#N)C(=O)N3C)cc1` [Example 37, 2-(5-Cyano-pentyl)-4-methyl-1,1,3-trioxo-1,2,3,4.tetrahydro-1l^6-benzo[1,2,4]thiadiazine-7-carboxylic Acid 4-methoxy-benzylamide], the IC50 amounted to 3.2 µM.

Take `COC(=O)Nc1cc(CN2C(=O)N(C)c3ccc(C(=O)NCc4ccc(OC)cc4)cc3S2(=O)=O)on1` [Example 46, {5-[7-(4-Methoxy-benzylcarbamoyl)-4-methyl-1,1,3-trioxo-3,4-dihydro-1H-1l^6-benzo[1,2,4]thiadiazin-2-ylmethyl]-isoxazol-3-yl}-carbamic Acid Methyl Ester]: the IC50 stood at 1.7 µM.

Consider `COc1ccc(CNC(=O)c2ccc3c(c2)S(=O)(=O)N(Cc2ccc(-c4ccccc4)cc2)C(=O)N3C)cc1` [Example 23, 2-Biphenyl-4-ylmethyl-4-methyl-1,1,3-trioxo-1,2,3,4-tetrahydro-1l^6-benzo[1,2,4]thiadiazine-7-carboxylic acid 4-methoxy-benzylamide], for which the IC50 was over 30 µM.

Take `CC/C=C/CN1C(=O)N(C)c2ccc(C(=O)NCc3ccc(OC)cc3)cc2S1(=O)=O` [Example 39, 4-Methyl-1,1,3-trioxo-2-(E)-pent-2-enyl-1,2,3,4-tetrahydro-1l^6-benzo[1,2,4]thiadiazine-7-carboxylic Acid 4-methoxy-benzylamide]: the IC50 was determined as 1.5 µM.

`C=C(C)CN1C(=O)N(C)c2ccc(C(=O)NCc3ccc(OC)cc3)cc2S1(=O)=O` [Example 40, 4-Methyl-2-(2-methyl-allyl)-1,1,3-trioxo-1,2,3,4-tetrahydro-1l^6-benzo[1,2,4]thiadiazine-7-carboxylic Acid 4-methoxy-benzylamide]: the IC50 worked out at 1.7 µM.

For the compound `C/C=C/CN1C(=O)N(C)c2ccc(C(=O)NCc3ccc(OC)cc3)cc2S1(=O)=O` [Example 38, 2-(E)-But-2-enyl-4-methyl-1,1,3-trioxo-1,2,3,4-tetrahydro-1l^6-benzo[1,2,4]thiadiazine-7-carboxylic Acid 4-methoxy-benzylamide], the IC50 is 2.2 µM.

Turning to `CN1C(=O)N(Cc2ccccc2)S(=O)(=O)c2cc(C(=O)NCc3ccc(CCS(=O)(=O)NC(C)(C)C)cc3)ccc21` [Example 6, 2-Benzyl-4-methyl-1,1,3-trioxo-1,2,3,4-tetrahydro-1l^6-benzo[1,2,4]thiadiazine-7-carboxylic acid 4-(2-tert-butylsulfamoyl-ethyl)-benzylamide], the IC50 was over 30 µM.

For `COc1ccc(CNC(=O)c2ccc3c(c2)S(=O)(=O)N(Cc2ccc([N+](=O)[O-])cc2)C(=O)N3C)cc1` [Example 17, 4-Methyl-2-(4-nitro-benzyl)-1,1,3-trioxo-1,2,3,4-tetrahydro-1l^6-benzo[1,2,4]thiadiazine-7-carboxylic acid 4-methoxy-benzylamide], the IC50 was 0.615 µM.

Regarding `CN1C(=O)N(Cc2ccccc2)S(=O)(=O)c2cc(C(=O)NCc3cc4ccccc4[nH]3)ccc21` [Example 7, 2-Benzyl-4-methyl-1,1,3-trioxo-1,2,3,4-tetrahydro-1l^6-benzo[1,2,4]thiadiazine-7-carboxylic acid (1H-indol-2-ylmethyl)-amide], the IC50 is over 30 µM.

On to `COc1ccc(CNC(=O)c2ccc3c(c2)S(=O)(=O)N(C(C)c2ccccc2)C(=O)N3C)cc1` (centres unmarked) [Example 36, 4-Methyl-1,1,3-trioxo-2-(1-phenyl-ethyl)-1,2,3,4-tetrahydro-1l^6-benzo[1,2,4]thiadiazine-7-carboxylic Acid 4-methoxy-benzylamide], for which the IC50 turned out to be 6.3 µM.

With `COc1ccc(CNC(=O)c2ccc3c(c2)S(=O)(=O)N(Cc2cscn2)C(=O)N3C)cc1` [Example 47, 4-Methyl-1,1,3-trioxo-2-thiazol-4-ylmethyl-1,2,3,4-tetrahydro-1l^6-benzo[1,2,4]thiadiazine-7-carboxylic Acid 4-methoxy-benzylamide], the IC50 worked out at 13 µM.

Take `COc1ccc(CNC(=O)c2ccc3c(c2)S(=O)(=O)N(CC=C(C)C)C(=O)N3C)cc1` [Example 41, 4-Methyl-2-(3-methyl-but-2-enyl)-1,1,3-trioxo-1,2,3,4-tetrahydro-1l^6-benzo[1,2,4]thiadiazine-7-carboxylic Acid 4-methoxy-benzylamide]: the IC50 was 1.9 µM.

Turning to `CN1C(=O)N(Cc2ccccc2)S(=O)(=O)c2cc(C(=O)NCc3ccc4[nH]ccc4c3)ccc21` [Example 4, 2-Benzyl-4-methyl-1,1,3-trioxo-1,2,3,4-tetrahydro-1l^6-benzo[1,2,4]thiadiazine-7-carboxylic acid (1H-indol-5-ylmethyl)-amide], the IC50 was over 30 µM.

On to `COc1ccc(CNC(=O)c2ccc3c(c2)S(=O)(=O)N(Cc2ccc4nonc4c2)C(=O)N3C)cc1` [Example 45, 2-Benzo[1,2,5]oxadiazol-5-ylmethyl-4-methyl-1,1,3-trioxo-1,2,3,4-tetrahydro-1l^6-benzo[1,2,4]thiadiazine-7-carboxylic Acid 4-methoxy-benzylamide], for which the IC50 was found to be 0.7 µM.

For `COc1ccc(CNC(=O)c2ccc3c(c2)S(=O)(=O)N(CCNC(=O)c2ccccc2)C(=O)N3C)cc1` [Example 44, 4-Methyl-1,1,3-trioxo-2-{2-[(1-phenyl-methanoyl)-amino]-ethyl}-1,2,3,4-tetrahydro-1l^6-benzo[1,2,4]thiadiazine-7-carboxylic Acid 4-methoxy-benzylamide], the IC50 amounted to 86 µM.

With `COc1ccc(CNC(=O)c2ccc3c(c2)S(=O)(=O)N(Cc2ccc(C(=O)OC(C)(C)C)cc2)C(=O)N3C)cc1` [Example 12, 4-[7-(4-Methoxy-benzylcarbamoyl)-4-methyl-1,1,3-trioxo-3,4-dihydro-1H-1l^6-benzo[1,2,4]thiadiazin-2-ylmethyl]-Benzoic Acid Tert-Butyl Ester], the IC50 is over 30 µM.

For `CN1C(=O)N(Cc2ccccc2)S(=O)(=O)c2cc(C(=O)NCc3ccc(CCS(N)(=O)=O)cc3)ccc21` [Example 8, 2-Benzyl-4-methyl-1,1,3-trioxo-1,2,3,4-tetrahydro-1l^6-benzo[1,2,4]thiadiazine-7-carboxylic acid 4-(2-sulfamoyl-ethyl)-benzylamide], the IC50 was determined as 63 µM.

Consider `CN1C(=O)N(Cc2ccc(C(=O)OC(C)(C)C)cc2)S(=O)(=O)c2cc(C(=O)NCc3ccccc3)ccc21` [Example 10, 4-(7-Benzylcarbamoyl-4-methyl-1,1,3-trioxo-3,4-dihydro-1H-1l^6-benzo[1,2,4]thiadiazin-2-ylmethyl)-benzoic Acid Tert-Butyl Ester], for which the IC50 is over 30 µM.

For `COc1ccc(CNC(=O)c2ccc3c(c2)S(=O)(=O)N(CCS(=O)(=O)c2ccc(C)cc2)C(=O)N3C)cc1` [Example 42, 4-Methyl-1,1,3-trioxo-2-[2-(toluene-4-sulfonyl)-ethyl]-1,2,3,4-tetrahydro-1l^6-benzo[1,2,4]thiadiazine-7-carboxylic Acid 4-methoxy-benzylamide], the IC50 was determined as 100 µM.

As for `COc1ccc(CNC(=O)c2ccc3c(c2)S(=O)(=O)N(Cc2ccc(C(=O)OCCN(C)C)cc2)C(=O)N3C)cc1` [Example 26, 4-[7-(4-Methoxy-benzylcarbamoyl)-4-methyl-1,1,3-trioxo-3,4-dihydro-1H-1l^6-benzo[1,2,4]thiadiazin-2-ylmethyl]-benzoic acid 2-dimethylamino-ethyl Ester Hydrochloride], the IC50 is 2.2 µM.

For `CCC#CCN1C(=O)N(C)c2ccc(C(=O)NCc3ccc(OC)cc3)cc2S1(=O)=O` [Example 35, 4-methyl-1,1,3-trioxo-2-pent-2-ynyl-1,2,3,4-tetrahydro-1l^6-benzo[1,2,4]thiadiazine-7-carboxylic Acid 4-methoxy-benzylamide], the IC50 is 1.4 µM.

As for `COc1ccc(CNC(=O)c2ccc3c(c2)S(=O)(=O)N(Cc2ccc(S(C)(=O)=O)cc2)C(=O)N3C)cc1` [Example 15, 2-(4-Methanesulfonyl-benzyl)-4-methyl-1,1,3-trioxo-1,2,3,4-tetrahydro-1l^6-benzo[1,2,4]thiadiazine-7-carboxylic acid 4-methoxy-benzylamide], the IC50 was 11 µM.
